We go through eleven compounds from patent publication US20050171350A1, “Benzhydryl derivatives” (Fujisawa Pharamaceutical Co., Ltd., priority 2001, published 2005).

Data set [1] relates to emesis in the dog. The experiment in a line: Emesis in the Dog (apomorphine-induced retching and vomiting). It is filed as in vivo. Particulars: adult female dogs; test compound i.v. at the dose of 1.0 mg/kg; 5 min later subcutaneous apomorphine (0.1 mg/0.5 ml/kg); observed for 60 min. As for the experimental part: Individually housed adult female dogs (8 to 15 kg) were given an i.v. injection of a solution containing a test compound. 5 Min later the emetic responses (retching and vomiting) were induced by administration of subcutaneous apomorphine (0.1 mg/0.5 ml/kg) and observed for the next 60 min. The timing and number of retches and vomits observed were recorded for each animal. An individual animal was tested with at least 10 days between experiments.

By melting point is commonly meant the temperature of the solid-liquid transition. For the compound `CCOc1nc(OC)nc(OC)c1CN1C[C@@H]2CN(C(=O)CO)CCN2[C@H](C(c2ccccc2)c2ccccc2)C1.Cl.Cl`, the melting point is 150 to 152 °C (dec.).
Compound `COc1nc(OC)c(CN2C[C@@H]3CN(C(=O)CO)CCN3[C@H](C(c3ccccc3)c3ccccc3)C2)c(OC2CCC2)n1.Cl.Cl` displayed a melting point of 141 to 145 °C.
The compound `COc1nc(C)nc(OC)c1CN1C[C@@H]2CN(C(=O)CO)CCN2[C@H](C(c2ccccc2)c2ccccc2)C1.Cl.Cl` gave a melting point of 129 to 132 °C.
Turning to `COc1nc(OC)c(CN2C[C@@H]3CN(C(=O)CO)CCN3[C@H](C(c3ccccc3)c3ccccc3)C2)c(OC(C)C)n1.Cl.Cl`, the melting point was 145 to 148 °C (dec.).
Turning to `COc1nc(Cl)c(CN2C[C@@H]3CN(C(=O)CO)CCN3[C@H](C(c3ccccc3)c3ccccc3)C2)c(OC)n1.Cl.Cl`, the melting point is 98 to 101 °C (dec.).
On the same count and under the same terms, next, `COc1nc(Cl)nc(OC)c1CN1C[C@@H]2CN(C(=O)CO)CCN2[C@H](C(c2ccccc2)c2ccccc2)C1.Cl.Cl`: 150 to 155 °C (dec.); `COc1nc(OC)c(CN2C[C@@H]3CN(C(=O)CO)CCN3[C@H](C(c3ccccc3)c3ccccc3)C2)c(OCC(F)F)n1.Cl.Cl`: 143 to 146 °C; `COc1nc(C)c(CN2C[C@@H]3CN(C(=O)CO)CCN3[C@H](C(c3ccccc3)c3ccccc3)C2)c(OC)n1.Cl.Cl`: 174 to 177 °C.
`COc1nc(OC)c(CN2C[C@@H]3CN(C(=O)N4CCOCC4)CCN3[C@H](C(c3ccccc3)c3ccccc3)C2)c(OC)n1.Cl.Cl` came in with a melting point of 139 to 143 °C.
The same measure, in the same setting: as for `COc1nc(OC)c(CN2C[C@@H]3CN(C(=O)c4cccnc4)CCN3[C@H](C(c3ccccc3)c3ccccc3)C2)c(OC(C)C)n1.Cl.Cl.Cl`, the figure is 143 to 147 °C.
With `COc1nc(OC)c(CN2C[C@@H]3CN(C(=O)CO)CCN3[C@H](C(c3ccccc3)c3ccccc3)C2)c(OC)n1.Cl.Cl` [Example 1, 2-[(6R, 9aR)-6-benzhydryl-8-[(2,4,6-trimethoxy-5-pyrimidinyl)methyl]octahydro-2H-pyrazino[1,2-a]pyrazin-2-yl]-2-oxoethanol dihydrochloride], the melting point was 155 to 158 °C (dec.). The “inhibition rate of emesis in the dog” value in data set [1] came to 100%.
